In patent US20260041781A1, “NOVEL GLUCOCORTICOID RECEPTOR AGONISTS AND IMMUNOCONJUGATES THEREOF” (priority 2022, published 2026):

Molecular target: T1, GR LBD (ligand binding domain) (Homo sapiens, UniProt P04150)
T1 construct: expressed in transfected cells; host or cells: HEK293
T1 sequence (P04150 524-758 limits assumed): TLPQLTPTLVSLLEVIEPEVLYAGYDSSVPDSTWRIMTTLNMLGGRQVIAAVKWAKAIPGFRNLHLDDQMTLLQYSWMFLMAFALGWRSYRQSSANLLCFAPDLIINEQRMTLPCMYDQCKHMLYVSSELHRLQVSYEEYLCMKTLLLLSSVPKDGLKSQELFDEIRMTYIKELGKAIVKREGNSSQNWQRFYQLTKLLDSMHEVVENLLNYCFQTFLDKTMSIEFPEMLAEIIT
Assay: GR Reporter Assay (pBind assay, pG5luc luciferase reporter, agonist mode)
Format: cell-based
Details: HEK293 cells transiently transfected with pG5luc and GR LBD
Protocol: The assay is a pBind assay following the general principle outlined below. 2×10^4 HEK293 cells/96-well are transiently transfected with pG5luc and GR LBD 1:1 at 50 ng/well. GR LBD (ligand binding domain) is a […] fusion protein (used to yeast GAL4) and upon binding to the test article will bind the luciferase reporter and activate transcription of luciferase. Upon addition of a substrate, the luciferase activity can be measured and corresponds to the activity of the test article. The assay is performed in agonist mode.

| EC50 [nM] | SMILES |
| --- | --- |
| < 5 | C[C@]12C=CC(=O)C=C1CC[C@H]1[C@@H]3C[C@H]4O[C@H](c5cccc(N)c5)O[C@@]4(C(=O)CCl)[C@@]3(C)C[C@H](O)[C@@]12F [Compound 1] |
| < 5 | C[C@]12C=CC(=O)C=C1CC[C@H]1[C@@H]3C[C@H]4O[C@@H](c5cccc(N)c5)O[C@@]4(C(=O)CF)[C@@]3(C)C[C@H](O)[C@@]12F [Compound 3] |
| > 30 | C[C@@H]1C[C@H]2[C@@H]3C[C@H](F)C4=CC(=O)C=C[C@]4(C)[C@@]3(F)[C@@H](O)C[C@]2(C)[C@@]1(OC(=O)c1cccc(N)c1)C(=O)N(C)CC(O)CO (stereo partly drawn) [Compound 20, (6S,8S,9R,10S,11S,13S,14S,16R,17R)-17-((2,3-dihydroxypropyl)(methyl)carbamoyl)-6,9-difluoro-11-hydroxy-10,13,16-trimethyl-3-oxo-6,7,8,9,10,11,12,13,14,15,16,17-dodecahydro-3H-cyclopenta[a]phenanthren-17-yl 3-aminobenzoate] |
| > 30 | C[C@@H]1C[C@H]2[C@@H]3C[C@H](F)C4=CC(=O)C=C[C@]4(C)[C@@]3(F)[C@@H](O)C[C@]2(C)[C@@]1(OC(=O)c1cccc(N)c1)C(=O)NCCO [Compound 19] |
| < 5 | C[C@]12C=CC(=O)C=C1CC[C@@H]1[C@@H]2[C@@H](O)C[C@@]2(C)[C@H]1C[C@H]1O[C@@H](c3ccc(Cc4cccc(N)c4)cc3)O[C@]12C(=O)CF [Compound 25] |
| > 30 | C[C@@H]1C[C@H]2[C@@H]3C[C@H](F)C4=CC(=O)C=C[C@]4(C)[C@@]3(F)[C@@H](O)C[C@]2(C)[C@@]1(OC(=O)c1cccc(N)c1)C(=O)N(C)CCO [Compound 18] |
| > 30 | C[C@@H]1C[C@H]2[C@@H]3C[C@H](F)C4=CC(=O)C=C[C@]4(C)[C@@]3(F)[C@@H](O)C[C@]2(C)[C@@]1(OC(=O)c1cccc(N)c1)C(=O)N1CCCC1 [Compound 14] |
| < 5 | CN(C)C(=O)[C@@]12O[C@H](c3cccc(Cc4cccc(N)c4)c3)O[C@@H]1C[C@H]1[C@@H]3CCC4=CC(=O)C=C[C@]4(C)[C@H]3[C@@H](O)C[C@@]12C [Compound 23] |
| > 30 | CNC(=O)[C@@]1(OC(=O)c2cccc(N)c2)[C@H](C)C[C@H]2[C@@H]3C[C@H](F)C4=CC(=O)C=C[C@]4(C)[C@@]3(F)[C@@H](O)C[C@@]21C [Compound 10] |
| < 5 | C[C@@H]1C[C@H]2[C@@H]3CCC4=CC(=O)C=C[C@]4(C)[C@@]3(F)[C@@H](O)C[C@]2(C)[C@@]1(OC(=O)c1cccc(N)c1)C(=O)N(C)C [Compound 12] |
| > 30 | C[C@@H]1C[C@H]2[C@@H]3C[C@H](F)C4=CC(=O)C=C[C@]4(C)[C@@]3(F)[C@@H](O)C[C@]2(C)[C@@]1(OC(=O)c1cccc(N)c1)C(=O)N1CCOCC1 [Compound 15] |
| < 5 | C[C@]12C=CC(=O)C=C1CC[C@H]1[C@@H]3C[C@H]4O[C@@H](c5cccc(N)c5)O[C@@]4(C(=O)CCl)[C@@]3(C)C[C@H](O)[C@@]12F [Compound 2] |
| < 5 | C[C@@H]1C[C@H]2[C@@H]3C[C@H](F)C4=CC(=O)C=C[C@]4(C)[C@@]3(F)[C@@H](O)C[C@]2(C)[C@@]1(OC(=O)c1ccco1)C(=O)NCCOc1ccc(N)cc1 [Compound 7] |
| < 5 | C[C@@H]1C[C@H]2[C@@H]3C[C@H](F)C4=CC(=O)C=C[C@]4(C)[C@@]3(F)[C@@H](O)C[C@]2(C)[C@@]1(OC(=O)c1ccc(N)cc1)C(=O)N(C)C [Compound 9] |
| < 5 | C[C@@H]1C[C@H]2[C@@H]3C[C@H](F)C4=CC(=O)C=C[C@]4(C)[C@@]3(F)[C@@H](O)C[C@]2(C)[C@@]1(OC(=O)c1cccc(N)c1)C(=O)N(C)C [Compound 8] |
| > 30 | CNC(=O)[C@@]1(OC(=O)c2ccc(N)cc2)[C@H](C)C[C@H]2[C@@H]3C[C@H](F)C4=CC(=O)C=C[C@]4(C)[C@@]3(F)[C@@H](O)C[C@@]21C [Compound 11] |
| > 30 | C[C@@H]1C[C@H]2[C@@H]3C[C@H](F)C4=CC(=O)C=C[C@]4(C)[C@@]3(F)[C@@H](O)C[C@]2(C)[C@@]1(OC(=O)c1cccc(N)c1)C(=O)N1CC(CO)C1 [Compound 17] |
